pIC50: −log10 of the molar value.
Tests used:
[1] = target: T1, Menin/MLL (menin, FITC-MBM1 peptide) (Homo sapiens, UniProt O00255, T541A); test: Menin/MLL fluorescence polarization (FP) assay; type: binding; conditions: averaged values over all measurements; read-out: Menin FP assay (IC50)
T1 construct: 6xHis (C)
T1 sequence (O00255 with tags, fused parts or gaps T541A): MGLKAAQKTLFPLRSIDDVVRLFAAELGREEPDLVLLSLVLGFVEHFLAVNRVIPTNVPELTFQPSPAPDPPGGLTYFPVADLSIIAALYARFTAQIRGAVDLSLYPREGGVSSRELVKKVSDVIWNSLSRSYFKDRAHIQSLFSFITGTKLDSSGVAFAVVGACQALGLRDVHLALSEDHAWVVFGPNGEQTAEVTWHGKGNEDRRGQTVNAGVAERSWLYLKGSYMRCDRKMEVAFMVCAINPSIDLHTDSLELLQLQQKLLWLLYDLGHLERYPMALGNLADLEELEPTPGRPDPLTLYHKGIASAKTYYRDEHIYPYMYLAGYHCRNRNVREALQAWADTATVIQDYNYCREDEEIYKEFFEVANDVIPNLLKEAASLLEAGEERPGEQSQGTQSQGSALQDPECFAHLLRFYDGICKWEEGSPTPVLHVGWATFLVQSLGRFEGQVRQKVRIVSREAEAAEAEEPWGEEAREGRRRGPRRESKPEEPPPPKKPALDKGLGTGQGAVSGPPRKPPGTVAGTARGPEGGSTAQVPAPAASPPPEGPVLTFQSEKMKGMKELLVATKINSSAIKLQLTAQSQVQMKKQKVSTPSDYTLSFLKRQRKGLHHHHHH
Method: Pharmacological Part 1) Menin/MLL Fluorescence Polarization Assay
To a non-surface binding, black 384-well microtiter plate was added 50 nL 160× test compound in DMSO and 4 μL 2× menin in assay buffer (40 mM Tris-HCl, pH 7.5, 50 mM NaCl, 1 mM DTT and 0.001% Tween 20). After incubation of test compound and menin for 10 min at ambient temperature, 4 μL 2×FITC-MBM1 peptide (FITC-β-alanine-SARWRFPARPGT-NH2) in assay buffer was added, the microtiter plate centrifuged at 1000 rpm for 1 min and the assay mixtures incubated for 15 min at ambient temperature. The relative amount of menin: FITC-MBM1 complex present in an assay mixture is determined by measuring the fluorescence polarization (FP) of the FITC label with a BMG Pherastar plate reader (ex. 485 nm/em. 520 nm) at ambient temperature. The final concentrations of reagents in the binding assay are 100 nM menin, 5 nM FITC-MBM1 peptide and 0.625% DMSO in assay buffer. Dose-response titrations of test compounds are conducted using an 11 point, three-fold serial dilution scheme, starting at 31 μM.
Compound potencies were determined by first calculating % inhibition at each compound concentration according to equation 1: % inhibition=((HC−LC)−(FP^compound−LC))/(HC−LC))*100 (Eqn 1)
Where LC and HC are the FP values of the assay in the presence or absence of a saturating concentration of a compound that competes with FITC-MBM1 for binding to menin, and FP^compound is the measured FP value in the presence of the test compound. HC and LC FP values represent an average of at least 16 replicates per plate.
Where Bottom and Top are the lower and upper asymptotes of the dose-response curve, respectively, IC50 is the concentration of compound that yields 50% inhibition of signal and h is the Hill coefficient.

[2] = target: T2, Menin/MLL (terbium chelate-labeled menin, FITC-MBM1 peptide) (Homo sapiens, UniProt O00255, T541A); test: Menin/MLL homogenous time-resolved fluorescence (HTRF) assay; type: binding; conditions: averaged values over all measurements; read-out: Menin HTRF assay (IC50)
T2 construct: Menin (a.a. 1-610-6×his tag) was labeled with terbium cryptate as follows
T2 sequence (O00255 with tags, fused parts or gaps T541A): T1 sequence (O00255 with tags, fused parts or gaps T541A)
Method in brief: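 Compound preincubated 5 min with terbium-cryptate-labeled menin (aa 1-610, His-tagged; 100 pM final), then 75 nM FITC-MBM1 peptide added, 15 min at ambient temperature; 0.5% DMSO, Tris pH 7.5 buffer. HTRF ratio 520/490 nm; % inhibition vs saturating competitor, IC50 from 11-point three-fold titration from 31 μM.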

MV-4-11 = test: Proliferation assay (spheroid assay) MV-4-11; type: cell-based, human; conditions: Homo sapiens, MV4-11, MV-4-11; averaged values over all measurements; read-out: Spheroid assay MV-4-11 (IC50)
Method in brief: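 Cells were grown as spheroids in ultra-low attachment round-bottom wells with compound (0.3% DMSO) for 8 d at 37 °C, imaged every 4 h, with confluence as spheroid size. AUC of confluence versus time (t=0 baseline) was expressed as % of DMSO control, and absolute IC50 came from a least-squares nonlinear fit.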

MOLM14 = test: Proliferation assay (spheroid assay) MOLM14; type: cell-based, human; conditions: Homo sapiens, MOLM-14, MOLM14; averaged values over all measurements; read-out: Spheroid assay MOLM14 (IC50)
Method: (§1) The anti-proliferative effect of menin/MLL protein/protein interaction inhibitor test compounds was assessed in human leukemia cell lines. The cell lines MV-4-11 and MOLM14 harbor MLL translocations and express the MLL fusion proteins MLL-AF4 and MLL-AF9, respectively, as well as the wildtype protein from the second allele. […] K562 and KG1 were used as a control cell lines containing two MLL wildtype alleles in order to exclude compounds that display general cytotoxic effects.
(§2) MV-4-11 and MOLM14 were cultured in RPMI-1640 (Sigma Aldrich) supplemented with 10% fetal bovine serum (HyClone), 2 mM L-glutamine (Sigma Aldrich) and 50 μg/ml gentamycin (Gibco). K562 were propagated in RPMI-1640 (Sigma Aldrich) supplemented with 20% fetal bovine serum (HyClone), 2 mM L-glutamine (Sigma Aldrich) and 50 μg/ml gentamycin (Gibco). KG1 were cultured in Iscove's MDM (Gibco) supplemented with 20% fetal bovine serum (HyClone), 2 mM L-glutamine (Sigma Aldrich) and 50 μg/ml gentamycin (Gibco).
(§3) In order to assess the anti-proliferative effects, 1,500 MV-4-11, 300 MOLM14, 750 K562 or 1,300 KG1 cells were seeded in 200 μl media per well in 96-well round bottom, ultra-low attachment plates (Costar, catalogue number 7007). Cell seeding numbers were chosen based on growth curves to ensure linear growth throughout the experiment. Test compounds were added at different concentrations and the DMSO content was normalized to 0.3%. Cells were incubated for 8 d at 37° C. and 5% CO2. Spheroid like growth was monitored in real-time by live-cell imaging (IncuCyteZOOM, Essenbio, 4× objective) acquiring one image every four hours for 8 d. Confluence (%) as a measure of spheroid size was determined using an integrated analysis tool.
(§4) In order to determine the cumulative effect of the test compounds over time, the area under the curve (AUC) in a plot of confluence against time was calculated. Confluence at the beginning of the experiment (t=0) was used as baseline for the AUC calculation.
(§5) Absolute IC50 values were calculated according to the following procedure: % Control=(AUC sample/AUC control)*100
(§6) AUC control=mean AUC of control values (cells without compound/DMSO as vehicle control)
(§7) A non-linear curve fit was applied using the least squares (ordinary) fit method to the plot of % control versus compound concentration. Based on this, the absolute IC50 value (half maximal inhibitory concentration of the test compound causing an anti-proliferative effect of 50% relative to the vehicle control) was calculated.

KG1 = test: Proliferation assay (spheroid assay) KG1 control cell line; type: cell-based; conditions: Homo sapiens, KG-1, averaged values over all measurements
Method: as §1, §2, §3, §4, §5, §6, §7

pIC50 [1] | pIC50 [2] | pIC50 (MV-4-11) | pIC50 (MOLM14) | SMILES | pIC50 (KG1)
6.64 | 7.16 | 5.08 | 4.89 | FC(F)(F)Cc1cc2c(N3CC[C@H]4[C@H](CCN4Cc4ccccc4)C3)ncnc2s1 (single isomer, unassigned) [Compound 4] | –
7.01 | 6.97 | 5.46 | 4.99 | Cn1cc(CN2CC[C@H]3CN(c4ncnc5sc(CC(F)(F)F)cc45)CC[C@H]32)cn1 (single isomer, unassigned) [Compound 9] | –
– | 7.60 | 6.59 | 5.80 | Cc1ccc(CN2CC[C@@H]3CN(c4ncnc5sc(CC(F)(F)F)cc45)C[C@@H]3C2)cn1 (single isomer, unassigned) [Compound 40] | 5.09
– | 7.13 | 6.08 | 5.92 | FC(F)(F)Cc1cc2c(N3C[C@H]4CCN(Cc5cccnc5Cl)C[C@H]4C3)ncnc2s1 (single isomer, unassigned) [Compound 41] | 5.35
– | 7.68 | 6.33 | 5.80 | FC(F)(F)Cc1cc2c(N3C[C@H]4CCN(Cc5ccc(Cl)nc5)C[C@H]4C3)ncnc2s1 (single isomer, unassigned) [Compound 42] | < 4.82
– | 7.17 | 6.23 | 5.68 | CCCN1CC[C@@H]2CN(c3ncnc4sc(CC(F)(F)F)cc34)C[C@@H]2C1 (single isomer, unassigned) [Compound 57] | < 4.82
– | 7.20 | 6.00 | – | CC(C)(CO)CN1CC[C@@H]2CN(c3ncnc4sc(CC(F)(F)F)cc34)C[C@@H]2C1 (single isomer, unassigned) [Compound 58] | < 4.82
7.06 | 7.15 | 6.08 | 5.17 | Cn1cc(CN2CCC3CN(c4ncnc5sc(CC(F)(F)F)cc45)CC3C2)cn1 (stereo not shown) [Compound 71] | –

The remaining lines, values behind:

SMILES | pIC50 [1] | pIC50 [2] | pIC50 (MV-4-11) | pIC50 (MOLM14) | pIC50 (KG1)
FC(F)(F)Cc1cc2c(N3CC[C@@H]4[C@@H](CCN4Cc4ccc(Cl)nc4)C3)ncnc2s1 (single isomer, unassigned) [Compound 10] | 6.60 | 6.93 | 5.36 | 5.70 | –
FC(F)(F)Cc1cc2c(N3CC[C@H]4[C@H](CCN4Cc4ccc(Cl)nc4)C3)ncnc2s1 (single isomer, unassigned) [Compound 11] | 6.23 | 6.17 | < 4.82 | < 4.82 | –
Cc1nc(CN2CC[C@H]3CN(c4ncnc5sc(CC(F)(F)F)cc45)CC[C@H]32)cs1 (single isomer, unassigned) [Compound 12] | 6.37 | 6.07 | 5.68 | 5.04 | –
Fc1ccc(CN2CC[C@@H]3CN(c4ncnc5sc(CC(F)(F)F)cc45)C[C@@H]3C2)cn1 (single isomer, unassigned) [Compound 37] | – | 7.39 | 6.32 | 5.89 | < 4.82
Cc1cncc(CN2CC[C@@H]3CN(c4ncnc5sc(CC(F)(F)F)cc45)C[C@@H]3C2)c1 (single isomer, unassigned) [Compound 39] | – | 6.78 | 6.17 | – | 5.60
COc1ncccc1CN1CC[C@@H]2CN(c3ncnc4sc(CC(F)(F)F)cc34)C[C@@H]2C1 (single isomer, unassigned) [Compound 44] | – | 7.06 | 5.68 | – | < 4.82
COc1ccc(CN2CC[C@@H]3CN(c4ncnc5sc(CC(F)(F)F)cc45)C[C@@H]3C2)cn1 (single isomer, unassigned) [Compound 45] | – | 7.80 | 6.55 | 5.74 | < 4.82
Cc1ncccc1CN1CC[C@@H]2CN(c3ncnc4sc(CC(F)(F)F)cc34)C[C@@H]2C1 (single isomer, unassigned) [Compound 60] | – | 7.02 | 6.18 | 6.66 | 5.74
COc1cc(CN2CC[C@@H]3CN(c4ncnc5sc(CC(F)(F)F)cc45)C[C@@H]3C2)ccn1 (single isomer, unassigned) [Compound 63] | – | 7.21 | 6.19 | 6.10 | 5.02
FC(F)(F)Cc1cc2c(N3C[C@H]4CCN(CC5CCCOC5)C[C@H]4C3)ncnc2s1 (single isomer, unassigned) [Compound 99] | – | 7.48 | 6.62 | – | < 4.82
FC(F)(F)Cc1cc2c(N3C[C@H]4CCN(CC5CCCCO5)C[C@H]4C3)ncnc2s1 (single isomer, unassigned) [Compound 100] | – | 7.24 | 6.03 | – | < 4.82
FC(F)(F)Cc1cc2c(N3C[C@H]4CCN(CC5CCOC5)C[C@H]4C3)ncnc2s1 (single isomer, unassigned) [Compound 101] | – | 7.55 | 6.39 | – | < 4.82
Cn1cc(CN2CC3CN(c4ncnc5sc(CC(F)(F)F)cc45)CC3C2)cn1 (stereo not shown) [Compound 18] | 6.28 | 5.95 | < 4.82 | < 4.82 | –
OCCn1cccc1CN1CCC2CN(c3ncnc4sc(CC(F)(F)F)cc34)CCC21 (stereo not shown) [Compound 23] | 6.66 | 6.44 | 5.77 | 5.37 | –
